Patent publication US20090318396A1, “CORTICOSTEROID LINKED BETA-AGONIST COMPOUNDS FOR USE IN THERAPY” (priority 2008, published 2009)

Tests used:
[1] = tested on: ovalbumin-induced lung inflammation; assay: Mouse ovalbumin model of lung inflammation; format: in vivo, Mice (Balb/c); conditions: mouse OVA
Method: Mice (Balb/c) were immunized by intraperitoneal injection of ovalbumin (10 μg OVA suspended in 2 mg aluminum hydroxide) on day 0 and 7. One group was sensitized and treated with vehicle (NSV). One group was immunized with sterile water only and treated with vehicle, e.g. to serve as a nonsensitized (negative) control (Vehicle). […] On days 14 and 15, the animals were exposed to OVA by inhalation (3 h; 5 mg/m^3). Forty eight hours following the last OVA challenge (day 17) mice were sacrificed. Bronchoalveolar lavage (BAL) was taken from each animal to collect cells and fluid. Cell numbers and differentials were calculated from BAL.

[2] = tested on: airway epithelial cells cultured at an air-liquid interface; assay: Drug metabolism in airway epithelial cells cultured at an air-liquid interface; format: in vitro ADME, human
Method: Cryopreserved passage 1 cells were cultured in bronchial epithelial growth medium (Fulcher, M. L., et al., Well-differentiated human airway epithelial cell cultures. Methods Mol Med, 2005. 107: p. 183-206) on 100 mm Type I collagen-coated plastic dishes. At 70% confluence, passage 2 cells were transferred to type IV collagen-coated Millicell membranes (Millipore, Bedford, Mass.) in medium that supports growth at an air-liquid-interface (ALI) (Fulcher er al., 2005). Cells were maintained at an ALI and allowed to differentiate fully for approximately 28 days. […] Approximately 1 hour prior to the start of the experiment, the apical surfaces of the cells were washed once again with PBS and the basolateral media replaced with fresh ALI media. At time=0 hrs, the test article was diluted from a 10 mM stock solution in DMSO to a 40 μM solution in ALI media/PBS/10% EtOH/water (v/v). 50 μl of the resulting 40 μM solution was immediately added to the apical surface of the cells. 200 μl of the dosing solution was also added to 800 μl of 100% ACN and frozen immediately on dry ice. The remaining dosing solution was placed in the incubator with the cells. The dosing solution and cells were allowed to incubate for 10, 120 and 240 min at which points the apical surfaces of cells from 4 millicell cell culture inserts (n=4) were washed with 3×100 μl of PBS or 10% EtOH/water (v/v) per millicell. […]

[3] = 3.0 mg/kg IT, 1x/day day 14 and 15

## CC[N+](CC)(CC(=O)OCC(=O)[C@@]12O[C@H](C3CCCCC3)O[C@@H]1C[C@H]1[C@@H]3CCC4=CC(=O)C=C[C@]4(C)[C@H]3[C@@H](O)C[C@@]12C)Cc1cc(C(O)CNCCCCCCOCCCCc2ccccc2)ccc1OP(=O)(O)O.[Cl-] (stereo partly drawn) [Example 52, [5-[1-hydroxy-2-[6-(4-phenylbutoxy)hexylamino]ethyl]-2-phosphonooxybenzyl]-(diethyl)-[[11β,16α]-[[15,16-((R)-cyclohexylmethylene)bis(oxy)]-11-hydroxypregna-1,4-diene-3,20-dion-21-yl]carbonylmethyl]ammonium chloride]
[1]; 0.6 mg/kg IT
  Eosinophils in BAL, Mean: 367580 mL⁻¹
  Neutrophils in BAL, Mean: 7270 mL⁻¹
[1]; 1.0 mg/kg IT
  Eosinophils in BAL, Mean: 163320 mL⁻¹
  Neutrophils in BAL, Mean: 5340 mL⁻¹
[1]; [3]
  Eosinophils in BAL, Mean: 57420 mL⁻¹
  Neutrophils in BAL, Mean: 10370 mL⁻¹
[2]; apical and cellular compartments
  amount of the parent compound over time: decreased over time
[2]; cellular compartment
  amount of salmeterol and desciclesonide over time: increased in the cellular compartment
